30 compounds from PMC7587356, “High-Throughput Screening for Inhibitors of the SARS-CoV-2 Protease Using a FRET-Biosensor” (Molecules, 2020) can be followed below.

Counter-ions that a name gives are not always drawn. Like-named read-outs stand apart in the source and are kept apart here.

This assay concerns the target SARS-CoV-2 3CLpro (Severe acute respiratory syndrome coronavirus 2, UniProt P0DTD1). Description: biochemical. Format: biochemical. On the set-up: Replicate_1 / Replicate_2 / mean / mean (LOPAC_screen_w_protease): unit not given here. The following applies: for inhibition at 5 µM: 4 h.
[1] abbreviates: LOPAC1280 primary screen with protease, 5 µM compound, mean of the two replicates.
Setting [2] is: LOPAC1280 primary screen with protease, 5 µM compound, replicate 1.
Where [3] appears, read: LOPAC1280 primary screen with protease, 5 µM compound, replicate 2.
[4] abbreviates: read-out: Replicate_1 (LOPAC_screen_w_protease).
The mark [5] stands for this setting: read-out: Replicate_2 (LOPAC_screen_w_protease).
Where [6] appears, read: sheet LOPAC_screen_w_protease, LOPAC1280 primary screen at 5 µM, with protease, mean of the two replicates, read-out: mean.
The mark [7] stands for this setting: sheet LOPAC_screen_w_protease, LOPAC1280 primary screen at 5 µM, with protease, replicate 1, read-out: Replicate_1.
Where [8] appears, read: sheet LOPAC_screen_w_protease, LOPAC1280 primary screen at 5 µM, with protease, replicate 2, read-out: Replicate_2.
The mark [9] stands for this setting: sheet LOPAC_screen_w_protease, LOPAC1280 at 5 µM, mean of two replicates, read-out: mean.
The mark [10] stands for this setting: sheet LOPAC_screen_w_protease, LOPAC1280 at 5 µM, replicate 1, read-out: Replicate_1.
[11] abbreviates: sheet LOPAC_screen_w_protease, LOPAC1280 at 5 µM, replicate 2, read-out: Replicate_2.
The mark [12] stands for this setting: sheet LOPAC_screen_w_protease, primary screen with protease, compound at 5 µM, mean of two replicates, read-out: mean.
Where [13] appears, read: sheet LOPAC_screen_w_protease, primary screen with protease, compound at 5 µM, replicate 1, read-out: Replicate_1.
Setting [14] is: sheet LOPAC_screen_w_protease, primary screen with protease, compound at 5 µM, replicate 2, read-out: Replicate_2.
Where [15] appears, read: sheet LOPAC_screen_w_protease, primary screen at 5 µM, mean of two replicates.
Where [16] appears, read: sheet LOPAC_screen_w_protease, primary screen at 5 µM, replicate 1.
[17] abbreviates: sheet LOPAC_screen_w_protease, primary screen at 5 µM, replicate 2.
The mark [18] stands for this setting: sheet LOPAC_screen_w_protease, primary screen with protease, mean of two replicates, read-out: mean.
[19] abbreviates: sheet LOPAC_screen_w_protease, primary screen with protease, replicate 1, read-out: Replicate_1.
Where [20] appears, read: sheet LOPAC_screen_w_protease, primary screen with protease, replicate 2, read-out: Replicate_2.
Setting [21] is: LOPAC1280 primary screen with protease, 5 µM compound, mean of two replicates.
Setting [22] is: sheet LOPAC_screen_w_protease, primary screen with protease, 5 µM, mean of two replicates.
Where [23] appears, read: sheet LOPAC_screen_w_protease, primary screen with protease, 5 µM, replicate 1.
[24] abbreviates: sheet LOPAC_screen_w_protease, primary screen with protease, 5 µM, replicate 2.

As for `CC1Cc2cc3c(cc2C(c2ccc(N)cc2)=NN1)OCO3.Cl` (centres unmarked) [GYKI 52895], under “sheet LOPAC_screen_w_protease, LOPAC1280 primary screen with protease, 5 µM compound, mean of the two replicates”, the mean was 5.365. This compound also gave a Replicate_1 (sheet LOPAC_screen_w_protease, LOPAC1280 primary screen with protease, 5 µM compound, replicate 1) of 5.021. The same compound came in with a Replicate_2 (sheet LOPAC_screen_w_protease, LOPAC1280 primary screen with protease, 5 µM compound, replicate 2) of 5.7079.

As to `Cl.NC1C=CC=C(C(=O)O)C1` (centres unmarked) [Gabaculine hydrochloride], under setting [1], the “mean (LOPAC_screen_w_protease)” value came to 2.074. The “Replicate_1 (LOPAC_screen_w_protease)” value under setting [2] worked out at 1.548. The “Replicate_2 (LOPAC_screen_w_protease)” value under setting [3] is listed as 2.6.

Turning to `NCC1(CC(=O)O)CCCCC1` [Gabapentin], the “mean (LOPAC_screen_w_protease)” value is given as 1.9821. Under setting [4], the inhibition at 5 µM was determined as 3.94%. The inhibition at 5 µM under setting [5] is 0.0248%.

On to `CC[N+](CC)(CC)CCOc1cccc(OCC[N+](CC)(CC)CC)c1OCC[N+](CC)(CC)CC` [Gallamine triethiodide], for which the inhibition at 5 µM reads like this: (sheet LOPAC_screen_w_protease, primary screen at 5 µM, mean of two replicates, read-out: mean (LOPAC screen with protease)) 11.3%; (sheet LOPAC_screen_w_protease, primary screen at 5 µM, replicate 1, read-out: Replicate_1 (LOPAC screen with protease)) 12.1%; (sheet LOPAC_screen_w_protease, primary screen at 5 µM, replicate 2, read-out: Replicate_2 (LOPAC screen with protease)) 10.6%.

For `Nc1nc(O)c2ncn(COC(CO)CO)c2n1` [Ganciclovir], the inhibition at 5 µM worked out at 0.74% under setting [6], 1% under setting [7] and 0.479% under setting [8].

For `O=c1c(-c2ccc(O)cc2)coc2cc(O)cc(O)c12` [Genistein], the inhibition at 5 µM under setting [4] was found to be 2.15% and the inhibition at 5 µM under setting [5] amounted to 0.656%.

Regarding `COc1ccc(Cl)cc1C(=O)NCCc1ccc(S(=O)(=O)NC(=O)NC2CCCCC2)cc1` [Glibenclamide], the inhibition at 5 µM runs as follows: under setting [6], 0.733%; under setting [7], 1.31%; under setting [8], 0.155%.

As to `Cc1cnc(C(=O)NCCc2ccc(S(=O)(=O)NC(=O)NC3CCCCC3)cc2)cn1` [Glipizide], the inhibition at 5 µM (read-out: Replicate_1 (LOPAC screen with protease)) was 10.3%, the inhibition at 5 µM (read-out: Replicate_2 (LOPAC screen with protease)) amounted to 3.17% and the inhibition at 5 µM (read-out: mean (LOPAC screen with protease)) is 6.73%.

With `N=C(N)N/N=C/c1c(Cl)cccc1Cl` [Guanabenz acetate], the inhibition at 5 µM under setting [9] worked out at 1.09%, the inhibition at 5 µM under setting [10] worked out at 2.57% and the inhibition at 5 µM under setting [11] was -0.398%.

`N=C(N)NC(=O)Cc1c(Cl)cccc1Cl` [Guanfacine hydrochloride]: the inhibition at 5 µM turned out to be 2.62% under setting [12], 3.74% under setting [13] and 1.51% under setting [14].

Take `Br.Br.NC(N)=NCCSSCCN=C(N)N` [Guanidinoethyl disulfide dihydrobromide]: the “mean (LOPAC screen with protease)” value under setting [15] is 36.2152. The “Replicate_1 (LOPAC screen with protease)” value under setting [16] turned out to be 35.2116. For the same compound, the “Replicate_2 (LOPAC screen with protease)” value under setting [17] is on record as 37.2188.

As for `O=C(O)C1=CCCNC1` [Guvacine hydrochloride], the inhibition at 5 µM runs as follows: under setting [18], 2.3%; under setting [19], 4.35%; under setting [20], 0.255%.

In the case of `CC1CNCCN1S(=O)(=O)c1cccc2cnccc12.Cl.Cl` (centres unmarked) [H-7 dihydrochloride], the “mean (LOPAC_screen_w_protease)” value under setting [21] was found to be 1.4971. Besides, the “Replicate_1 (LOPAC_screen_w_protease)” value under setting [2] is 2.345. For the same compound, the “Replicate_2 (LOPAC_screen_w_protease)” value under setting [3] came to 0.6491.

As to `CNCCNS(=O)(=O)c1cccc2cnccc12.Cl.Cl` [H-8 dihydrochloride], the “mean (LOPAC screen with protease)” value under setting [15] turned out to be 10.4369. For the same compound, under setting [16], the “Replicate_1 (LOPAC screen with protease)” value came out at 9.7701. For the same compound, under setting [17], the “Replicate_2 (LOPAC screen with protease)” value worked out at 11.1038.

For the compound `Cl.Cl.NCCNS(=O)(=O)c1cccc2cnccc12` [H-9 dihydrochloride], the mean under setting [22] turned out to be 0.3892. Under setting [23], the Replicate_1 came to 0.9278. Under setting [24], this compound returned a Replicate_2 of -0.1494.

As to `O=S(=O)(c1cccc2cnccc12)N1CCNCC1` [HA-100], under “sheet LOPAC_screen_w_protease, LOPAC1280 primary screen at 5 µM, with protease, mean of the two replicates”, the mean came out at 0.7375. The Replicate_1 (sheet LOPAC_screen_w_protease, LOPAC1280 primary screen at 5 µM, with protease, replicate 1) is 1.4906. Where the note is “sheet LOPAC_screen_w_protease, LOPAC1280 primary screen at 5 µM, with protease, replicate 2”, the Replicate_2 is on record as -0.01568.

Consider `Cl.NC(N)=NCCNS(=O)(=O)c1cccc2cnccc12` [HA-1004 hydrochloride], for which, under setting [21], the “mean (LOPAC_screen_w_protease)” value is 1.6. The “Replicate_1 (LOPAC_screen_w_protease)” value under setting [2] was 0.9796. The “Replicate_2 (LOPAC_screen_w_protease)” value under setting [3] turned out to be 2.221.

In the case of `CCCCC#Cc1nc(N)c2ncn([C@@H]3O[C@H](C(=O)NCC)[C@@H](O)[C@H]3O)c2n1` [HE-NECA], the mean under setting [22] came to 0.2072. In addition, under setting [23], the Replicate_1 is given as 3.132. For the same compound, the Replicate_2 under setting [24] is reported as -2.7179.

On to `O=C(CCCN1CCC(O)(c2ccc(Cl)cc2)CC1)c1ccc(F)cc1` [Haloperidol], for which the inhibition at 5 µM came out at 2.99% (LOPAC1280 primary screen with protease, 5 µM compound, replicate 1, read-out: Replicate_1 (LOPAC_screen_w_protease)) and 0.623% (LOPAC1280 primary screen with protease, 5 µM compound, replicate 2, read-out: Replicate_2 (LOPAC_screen_w_protease)). Besides, the “mean (LOPAC_screen_w_protease)” value under setting [1] is 1.809.

On to `Cc1nccc2c1[nH]c1ccccc12` [Harmane], for which the inhibition at 5 µM under setting [9] was determined as 1.1%, the inhibition at 5 µM under setting [10] stood at 2.71% and the inhibition at 5 µM under setting [11] was -0.5%.

Consider `C[N+]1(C)CCOC(O)(c2ccc(-c3ccc(C4(O)C[N+](C)(C)CCO4)cc3)cc2)C1` (centres unmarked) [Hemicholinium-3], for which the inhibition at 5 µM runs as follows: under setting [12], 2.72%; under setting [13], 4.37%; under setting [14], 1.08%.

Consider `C[N+](C)(C)CCCCCC[N+](C)(C)C` [Hexamethonium bromide], for which the inhibition at 5 µM is 0.248% (sheet LOPAC_screen_w_protease, primary screen with protease, 5 µM, mean of two replicates, read-out: mean); 1.66% (sheet LOPAC_screen_w_protease, primary screen with protease, 5 µM, replicate 1, read-out: Replicate_1); -1.17% (sheet LOPAC_screen_w_protease, primary screen with protease, 5 µM, replicate 2, read-out: Replicate_2).

Consider `C[N+](C)(C)CCCCCC[N+](C)(C)C.[Cl-].[Cl-]` [Hexamethonium dichloride], for which the “mean (LOPAC_screen_w_protease)” value under setting [1] was determined as 1.868. The “Replicate_1 (LOPAC_screen_w_protease)” value under setting [2] is listed as 3.928. For the same compound, the “Replicate_2 (LOPAC_screen_w_protease)” value under setting [3] is given as -0.1911.

For the compound `NCCc1c[nH]cn1` [Histamine dihydrochloride], the inhibition at 5 µM was 3.24% (read-out: Replicate_1), -1.24% (read-out: Replicate_2) and 1% (read-out: mean).

For `NNc1nncc2ccccc12` [Hydralazine hydrochloride], the inhibition at 5 µM worked out at 4.76% (read-out: Replicate_1), 1.31% (read-out: Replicate_2) and 3.03% (read-out: mean).

Turning to `NS(=O)(=O)c1cc2c(cc1Cl)NCNS2(=O)=O` [Hydrochlorothiazide], the inhibition at 5 µM was determined as 2.22% under setting [18], 3.63% under setting [19] and 0.799% under setting [20].

`C[C@]12CCC(=O)C=C1CC[C@@H]1[C@@H]2[C@@H](O)C[C@@]2(C)[C@H]1CC[C@]2(O)C(=O)COC(=O)CCC(=O)[O-].[Na+]` [Hydrocortisone 21-hemisuccinate sodium]: the mean (sheet LOPAC_screen_w_protease, LOPAC1280 at 5 µM, mean of two replicates) is recorded as 1.066. Where the note is “sheet LOPAC_screen_w_protease, LOPAC1280 at 5 µM, replicate 1”, the Replicate_1 is on record as 1.635. Moreover, the Replicate_2 (sheet LOPAC_screen_w_protease, LOPAC1280 at 5 µM, replicate 2) is recorded as 0.4974.

Take `C[C@]12CCC(=O)C=C1CC[C@@H]1[C@@H]2[C@@H](O)C[C@@]2(C)[C@H]1CC[C@]2(O)C(=O)CO` [Hydrocortisone]: the inhibition at 5 µM stood at 1.15% under setting [9], 2.23% under setting [10] and 0.0692% under setting [11].

For `Oc1ccc(O)cc1` [Hydroquinone], the inhibition at 5 µM (read-out: Replicate_1) was found to be 3.41%, the inhibition at 5 µM (read-out: Replicate_2) is -0.951% and the inhibition at 5 µM (read-out: mean) was 1.23%.

Compound `Nc1c2c(nc3ccccc13)CCCC2O.O=C(O)/C=C\C(=O)O` (centres unmarked) [Hydroxytacrine maleate] had a mean (sheet LOPAC_screen_w_protease, primary screen with protease, mean of two replicates) of 2.348. Moreover, the Replicate_1 (sheet LOPAC_screen_w_protease, primary screen with protease, replicate 1) is 3.064. Under “sheet LOPAC_screen_w_protease, primary screen with protease, replicate 2”, this compound yielded a Replicate_2 of 1.632.
